{"source": "patent US20220023289A1", "about": "“Application Of Pyrroloquinoline Quinone In Preparation Of Medicament Used For Preventing And Treating Acute Altitude Sickness And Acute Altitude Hypoxia Injury” (priority 2018, published 2022)", "key": {"[1]": {"tested_on": "rats exposed to acute altitude hypoxia", "assay": "Lipid metabolism in rats exposed to acute altitude hypoxia", "format": "in vivo, Wistar rat", "protocol": "(§1) Select healthy Wistar rats weight 160-200 g, half female and half male. After feeding for 3 days, these Wistar rats are randomly divided into ten groups according to their body weight, each group has 16±2 rats. The groups are divided as follows: five groups of the hypoxic exposure drug test group, respectively, are given 0.91 mg/kg, 1.83 mg/kg, 3.66 mg/kg, 7.31 mg/kg, and 14.63 mg/kg drugs. […] After continuous intragastric administration for 7 days, the animals in the hypoxic exposure group are simultaneously put into the decompression and hypoxia compound experimental chamber, the hatch is closed, and the pressure is reduced at a speed of 10 m/s. After being raised to an altitude of 6000 m and maintained for 8 hours, the speed in 10 m/s drops is reduced to normal altitude, open the hatch, and then take out the animal, collect blood samples (after standing for 1 hour, the supernatant is centrifuged and stored at −20° C.), and liver tissue samples. Detection indicator includes body weight, serum blood glucose, ATP, lactic acid, endothelin, nitric oxide, SOD, CO, MDA related to oxidative stress, and total protein, albumin, triglycerides, total cholesterol, high-density lipoprotein cholesterol, low-density lipoprotein cholesterol, glutamic pyruvic transaminase, total bilirubin, gluamic oxalacetic transaminase, serum urea nitrogen, creatinine, uric acid, lactate dehydrogenase, creatine kinase, α-hydroxybutyrate dehydrogenase; liver ATP, hepatic glycogen. Except that the formal oxygen control animal group is not put into the decompression and hypoxia compound experimental chamber, other experimental conditions and detection indicators are the same.\n(§2) Measure blood glucose, total protein, albumin, triglycerides, total cholesterol, high-density lipoprotein cholesterol, low-density lipoprotein cholesterol, glutamic-pyruvic transaminase, total bilirubin, glutamic oxalacetic transaminase, serum urea nitrogen, creatinine, uric acid, lactate dehydrogenase, creatine kinase, α-hydroxybutyrate dehydrogenase, blood homocysteine by using an automatic blood biochemical analyzer."}, "[2]": {"tested_on": "rats exposed to acute altitude hypoxia", "assay": "Myocardial enzyme activity in rats exposed to acute altitude hypoxia", "format": "in vivo, Wistar rat", "protocol": "as §1, §2"}, "[3]": {"conditions": "female rats, hypoxia, 0.91 mg/kg"}, "[4]": {"conditions": "female rats, hypoxia, 1.83 mg/kg"}, "[5]": {"conditions": "female rats, hypoxia, 3.66 mg/kg"}, "[6]": {"conditions": "female rats, hypoxia, 7.31 mg/kg"}, "[7]": {"conditions": "female rats, hypoxia, 14.63 mg/kg"}, "[8]": {"conditions": "female rats, normoxia, 3.66 mg/kg"}, "[9]": {"conditions": "male rats, hypoxia, 14.63 mg/kg"}}, "data": [{"smiles": "O=C(O)c1cc(C(=O)O)c2c(n1)C(=O)C(=O)c1cc(C(=O)O)[nH]c1-2", "note": "[PQQ, pyrroloquinoline quinone]", "values": [{"measurement": "High density lipoprotein cholesterol", "setting": "[1]; [3]", "value": "1.30 ± 0.07", "unit": "mmol/L"}, {"measurement": "Low density lipoprotein cholesterol", "setting": "[1]; [3]", "value": "0.12 ± 0.01", "unit": "mmol/L"}, {"measurement": "Total cholesterol", "setting": "[1]; [3]", "value": "1.69 ± 0.11", "unit": "mmol/L"}, {"measurement": "High density lipoprotein cholesterol", "setting": "[1]; [4]", "value": "1.18 ± 0.14", "unit": "mmol/L"}, {"measurement": "Low density lipoprotein cholesterol", "setting": "[1]; [4]", "value": "0.10 ± 0.02", "unit": "mmol/L"}, {"measurement": "Total cholesterol", "setting": "[1]; [4]", "value": "1.56 ± 0.17", "unit": "mmol/L"}, {"measurement": "High density lipoprotein cholesterol", "setting": "[1]; [5]", "value": "1.14 ± 0.10", "unit": "mmol/L"}, {"measurement": "Low density lipoprotein cholesterol", "setting": "[1]; [5]", "value": "0.10 ± 0.02", "unit": "mmol/L"}, {"measurement": "Total cholesterol", "setting": "[1]; [5]", "value": "1.47 ± 0.11", "unit": "mmol/L"}, {"measurement": "High density lipoprotein cholesterol", "setting": "[1]; [6]", "value": "1.27 ± 0.09", "unit": "mmol/L"}, {"measurement": "Low density lipoprotein cholesterol", "setting": "[1]; [6]", "value": "0.10 ± 0.02", "unit": "mmol/L"}, {"measurement": "Total cholesterol", "setting": "[1]; [6]", "value": "1.69 ± 0.09", "unit": "mmol/L"}, {"measurement": "High density lipoprotein cholesterol", "setting": "[1]; [7]", "value": "1.28 ± 0.11", "unit": "mmol/L"}, {"measurement": "Low density lipoprotein cholesterol", "setting": "[1]; [7]", "value": "0.11 ± 0.02", "unit": "mmol/L"}, {"measurement": "Total cholesterol", "setting": "[1]; [7]", "value": "1.64 ± 0.13", "unit": "mmol/L"}, {"measurement": "effect on total cholesterol, low-density and high-density lipoprotein cholesterol", "setting": "[1]; female rats, normoxia", "value": "no significant effects"}, {"measurement": "High density lipoprotein cholesterol", "setting": "[1]; [8]", "value": "1.39 ± 0.10", "unit": "mmol/L"}, {"measurement": "Low density lipoprotein cholesterol", "setting": "[1]; [8]", "value": "0.14 ± 0.03", "unit": "mmol/L"}, {"measurement": "Total cholesterol", "setting": "[1]; [8]", "value": "1.87 ± 0.10", "unit": "mmol/L"}, {"measurement": "effect on total cholesterol, low-density and high-density lipoprotein cholesterol", "setting": "[1]; hypoxia exposed female rats", "value": "no significant effects"}, {"measurement": "effect on triglycerides", "setting": "[1]; male rats exposed to hypoxia", "value": "is not found"}, {"measurement": "High density lipoprotein cholesterol", "setting": "[1]; male rats, hypoxia, 0.91 mg/kg", "value": "1.03 ± 0.09", "unit": "mmol/L"}, {"measurement": "Low density lipoprotein cholesterol", "setting": "[1]; male rats, hypoxia, 0.91 mg/kg", "value": "0.16 ± 0.03", "unit": "mmol/L"}, {"measurement": "Total cholesterol", "setting": "[1]; male rats, hypoxia, 0.91 mg/kg", "value": "1.47 ± 0.15", "unit": "mmol/L"}, {"measurement": "Triglycerides", "setting": "[1]; male rats, hypoxia, 0.91 mg/kg", "value": "1.25 ± 0.64", "unit": "mmol/L"}, {"measurement": "High density lipoprotein cholesterol", "setting": "[1]; male rats, hypoxia, 1.83 mg/kg", "value": "1.23 ± 0.11", "unit": "mmol/L"}, {"measurement": "Low density lipoprotein cholesterol", "setting": "[1]; male rats, hypoxia, 1.83 mg/kg", "value": "0.20 ± 0.02", "unit": "mmol/L"}, {"measurement": "Total cholesterol", "setting": "[1]; male rats, hypoxia, 1.83 mg/kg", "value": "1.71 ± 0.90", "unit": "mmol/L"}, {"measurement": "Triglycerides", "setting": "[1]; male rats, hypoxia, 1.83 mg/kg", "value": "1.06 ± 0.35", "unit": "mmol/L"}, {"measurement": "High density lipoprotein cholesterol", "setting": "[1]; male rats, hypoxia, 3.66 mg/kg", "value": "1.28 ± 0.09", "unit": "mmol/L"}, {"measurement": "Low density lipoprotein cholesterol", "setting": "[1]; male rats, hypoxia, 3.66 mg/kg", "value": "0.19 ± 0.04", "unit": "mmol/L"}, {"measurement": "Total cholesterol", "setting": "[1]; male rats, hypoxia, 3.66 mg/kg", "value": "1.80 ± 0.16", "unit": "mmol/L"}, {"measurement": "Triglycerides", "setting": "[1]; male rats, hypoxia, 3.66 mg/kg", "value": "1.36 ± 0.58", "unit": "mmol/L"}, {"measurement": "High density lipoprotein cholesterol", "setting": "[1]; male rats, hypoxia, 7.31 mg/kg", "value": "1.23 ± 0.10", "unit": "mmol/L"}, {"measurement": "Low density lipoprotein cholesterol", "setting": "[1]; male rats, hypoxia, 7.31 mg/kg", "value": "0.16 ± 0.02", "unit": "mmol/L"}, {"measurement": "Total cholesterol", "setting": "[1]; male rats, hypoxia, 7.31 mg/kg", "value": "1.69 ± 0.10", "unit": "mmol/L"}, {"measurement": "Triglycerides", "setting": "[1]; male rats, hypoxia, 7.31 mg/kg", "value": "1.35 ± 0.36", "unit": "mmol/L"}, {"measurement": "High density lipoprotein cholesterol", "setting": "[1]; [9]", "value": "1.44 ± 0.15", "unit": "mmol/L"}, {"measurement": "Low density lipoprotein cholesterol", "setting": "[1]; [9]", "value": "0.19 ± 0.03", "unit": "mmol/L"}, {"measurement": "Total cholesterol", "setting": "[1]; [9]", "value": "1.95 ± 0.15", "unit": "mmol/L"}, {"measurement": "Triglycerides", "setting": "[1]; [9]", "value": "1.40 ± 0.74", "unit": "mmol/L"}, {"measurement": "effect on low density lipoprotein cholesterol", "setting": "[1]; male rats, low-dose", "value": "no significant effects"}, {"measurement": "effect on total cholesterol and high-density lipoprotein cholesterol", "setting": "[1]; male rats, low-dose", "value": "reducing the amount"}, {"measurement": "Creatine Kinase", "setting": "[2]; [3]", "value": "505.43 ± 202.03", "unit": "U/L"}, {"measurement": "Lactate dehydrogenase", "setting": "[2]; [3]", "value": "627.43 ± 253.66", "unit": "U/L"}, {"measurement": "α-hydroxybutyrate dehydrogenase", "setting": "[2]; [3]", "value": "270.28 ± 111.79", "unit": "U/L"}, {"measurement": "Creatine Kinase", "setting": "[2]; [4]", "value": "508.57 ± 235.83", "unit": "U/L"}, {"measurement": "Lactate dehydrogenase", "setting": "[2]; [4]", "value": "650.00 ± 338.13", "unit": "U/L"}, {"measurement": "α-hydroxybutyrate dehydrogenase", "setting": "[2]; [4]", "value": "286.71 ± 154.38", "unit": "U/L"}, {"measurement": "Creatine Kinase", "setting": "[2]; [5]", "value": "459.14 ± 239.34", "unit": "U/L"}, {"measurement": "Lactate dehydrogenase", "setting": "[2]; [5]", "value": "544.14 ± 314.26", "unit": "U/L"}, {"measurement": "α-hydroxybutyrate dehydrogenase", "setting": "[2]; [5]", "value": "233.43 ± 147.72", "unit": "U/L"}, {"measurement": "Creatine Kinase", "setting": "[2]; [6]", "value": "454.86 ± 241.51", "unit": "U/L"}, {"measurement": "Lactate dehydrogenase", "setting": "[2]; [6]", "value": "499.71 ± 320.46", "unit": "U/L"}, {"measurement": "α-hydroxybutyrate dehydrogenase", "setting": "[2]; [6]", "value": "210.14 ± 140.24", "unit": "U/L"}, {"measurement": "Creatine Kinase", "setting": "[2]; [7]", "value": "439.86 ± 222.18", "unit": "U/L"}, {"measurement": "Lactate dehydrogenase", "setting": "[2]; [7]", "value": "496.86 ± 259.65", "unit": "U/L"}, {"measurement": "α-hydroxybutyrate dehydrogenase", "setting": "[2]; [7]", "value": "208.86 ± 112.12", "unit": "U/L"}, {"measurement": "effect on serum lactic dehydrogenase, creatine kinase, α-hydroxybutyrate dehydrogenase activity", "setting": "[2]; female rats, normoxia", "value": "increasing"}, {"measurement": "Creatine Kinase", "setting": "[2]; [8]", "value": "1024.00 ± 313.62", "unit": "U/L"}, {"measurement": "Lactate dehydrogenase", "setting": "[2]; [8]", "value": "1199.14 ± 204.93", "unit": "U/L"}, {"measurement": "α-hydroxybutyrate dehydrogenase", "setting": "[2]; [8]", "value": "537.29 ± 92.21", "unit": "U/L"}, {"measurement": "effect on serum lactic dehydrogenase, creatine kinase, α-hydroxybutyrate dehydrogenase activity", "setting": "[2]; hypoxia exposed female rats", "value": "has been not found"}, {"measurement": "effect on serum lactate dehydrogenase, creatine kinase, α-hydroxybutyrate dehydrogenase", "setting": "[2]; hypoxia exposed male rats", "value": "has not been found"}, {"measurement": "Creatine Kinase", "setting": "[2]; male rats, hypoxia, 0.91 mg/kg", "value": "443.63 ± 260.18", "unit": "U/L"}, {"measurement": "Lactate dehydrogenase", "setting": "[2]; male rats, hypoxia, 0.91 mg/kg", "value": "463.38 ± 364.37", "unit": "U/L"}, {"measurement": "α-hydroxybutyrate dehydrogenase", "setting": "[2]; male rats, hypoxia, 0.91 mg/kg", "value": "218.00 ± 173.09", "unit": "U/L"}, {"measurement": "Creatine Kinase", "setting": "[2]; male rats, hypoxia, 1.83 mg/kg", "value": "544.63 ± 418.71", "unit": "U/L"}, {"measurement": "Lactate dehydrogenase", "setting": "[2]; male rats, hypoxia, 1.83 mg/kg", "value": "650.13 ± 573.72", "unit": "U/L"}, {"measurement": "α-hydroxybutyrate dehydrogenase", "setting": "[2]; male rats, hypoxia, 1.83 mg/kg", "value": "286.75 ± 260.98", "unit": "U/L"}, {"measurement": "Creatine Kinase", "setting": "[2]; male rats, hypoxia, 3.66 mg/kg", "value": "544.50 ± 243.30", "unit": "U/L"}, {"measurement": "Lactate dehydrogenase", "setting": "[2]; male rats, hypoxia, 3.66 mg/kg", "value": "588.13 ± 360.36", "unit": "U/L"}, {"measurement": "α-hydroxybutyrate dehydrogenase", "setting": "[2]; male rats, hypoxia, 3.66 mg/kg", "value": "256.63 ± 154.55", "unit": "U/L"}, {"measurement": "Creatine Kinase", "setting": "[2]; male rats, hypoxia, 7.31 mg/kg", "value": "640.25 ± 333.16", "unit": "U/L"}]}]}
